Assay results reported in patent publication EP4578856A1, “HETEROCYCLIC COMPOUND” (Ubience Inc., priority 2022, dated 2024).

Columns and labels:
human ALK kinase = biological target: T1, human ALK kinase (Homo sapiens, UniProt Q9UM73); experiment: ALK kinase inhibitory activity, mobility shift assay (MSA, Carna Biosciences); assay type: biochemical; conditions: inhibition rate at 10 nM
T1 construct: GST (N); purchased Carna Biosciences, Inc; host or cells: baculovirus expression system
Experimental: The ALK kinase inhibitory activity was measured using a mobility shift assay (MSA) provided by Carna Biosciences, Inc.
The test compound was dissolved in DMSO to prepare a 1 µM solution. The solution was further diluted 25 times with an assay buffer (20 mmol/L HEPES, 0.01%Triton (registered trademark) X-100, 1 mmol/L DTT, pH 7.5) to obtain a test compound solution.
The human ALK kinase was expressed by fusing the cytoplasmic domain (1058 to 1620 amino acids of Accession No. BAG 10812.1) with GST at the N-terminus using the baculovirus expression system. The GST-ALK was purified by glutathione sepharose chromatography. A 4-fold concentration substrate (Srctide, 1000 nmol/L)/ATP (50 µmol/L)/metal solution (Mg, 5 mmol/L) was prepared with kit buffer (20 mmol/L HEPES, 0.01% Triton (registered trademark) X-100, 5 mmol/L DTT, pH 7.5). A 2-fold concentration kinase solution was prepared with assay buffer.
In the same manner as described in Test Example 1, tests and evaluation of inhibitory activity and data analysis were performed.

FAK protein = FAK protein (Homo sapiens, UniProt Q05397); experiment: Degradation inducing activity of FAK protein in PA-1 cells, Western blotting (Simple Western JESS); assay type: cell-based; parameters: endogenous in cells; host or cells: PA-1 (ATCC CRL-1572); conditions: at 10 µM, 24 hours
Chain of FAK protein (Q05397 whole entry): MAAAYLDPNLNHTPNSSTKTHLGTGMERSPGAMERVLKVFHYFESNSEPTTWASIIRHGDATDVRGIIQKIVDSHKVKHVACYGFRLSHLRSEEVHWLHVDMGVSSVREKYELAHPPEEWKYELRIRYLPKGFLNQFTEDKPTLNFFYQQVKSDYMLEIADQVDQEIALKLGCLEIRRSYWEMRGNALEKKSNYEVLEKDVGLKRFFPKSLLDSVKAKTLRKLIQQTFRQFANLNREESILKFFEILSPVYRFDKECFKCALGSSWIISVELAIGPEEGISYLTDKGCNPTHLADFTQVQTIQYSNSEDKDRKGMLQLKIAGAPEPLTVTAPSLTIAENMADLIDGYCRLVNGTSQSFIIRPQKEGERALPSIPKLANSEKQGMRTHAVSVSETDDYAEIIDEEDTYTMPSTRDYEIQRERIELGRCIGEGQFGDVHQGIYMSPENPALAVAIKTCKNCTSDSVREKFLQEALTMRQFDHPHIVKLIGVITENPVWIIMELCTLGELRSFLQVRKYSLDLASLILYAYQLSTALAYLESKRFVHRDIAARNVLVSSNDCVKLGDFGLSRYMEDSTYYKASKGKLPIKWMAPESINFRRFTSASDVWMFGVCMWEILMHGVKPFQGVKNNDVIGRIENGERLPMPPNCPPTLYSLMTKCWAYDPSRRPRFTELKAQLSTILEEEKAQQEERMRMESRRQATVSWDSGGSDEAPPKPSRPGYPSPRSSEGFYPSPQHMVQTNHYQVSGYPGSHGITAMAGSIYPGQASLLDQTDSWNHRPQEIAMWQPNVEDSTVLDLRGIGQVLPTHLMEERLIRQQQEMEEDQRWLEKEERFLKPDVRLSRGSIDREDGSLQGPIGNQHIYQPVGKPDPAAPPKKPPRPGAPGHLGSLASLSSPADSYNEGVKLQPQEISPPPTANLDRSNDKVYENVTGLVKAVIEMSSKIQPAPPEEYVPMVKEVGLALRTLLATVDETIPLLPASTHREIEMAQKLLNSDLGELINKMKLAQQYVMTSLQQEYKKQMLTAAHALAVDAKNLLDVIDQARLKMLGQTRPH
Experimental: In vitro degradation inducing activity of FAK protein of compounds of Examples was evaluated by Western Blotting (WB).
By a test compound, 10 mM DMSO solution was prepared, which was used as a 10 µM test compound solution. Further, the solution was diluted 10-fold with DMSO to prepare a 1 mM solution, which was used as a 1 µM test compound solution.
PA-1 cells (ATCC: CRL-1572, Lot: 70055709) were cultured in Eagle's Minimum Essential Medium supplemented with 10% FBS and 1% Penicillin/Streptomycin. The PA-1 cells seeded in a 24 well plate at 200,000 cells/well/1 mL were cultured for 24 hours, and then 1 µL of DMSO or a test compound solution was added thereto and treatment was performed for 24 hours. Cells were harvested and lysed for 20 minutes on ice using RIPA lysis buffer (Sigma, Cat#R0278) supplemented with protease inhibitor cocktail (Sigma, Cat#P8340; Roche, Cat#P11873580001), and phosphatase inhibitor cocktail (Sigma, Cat#P5726, P0044). The lysate was sonicated (15 seconds, amplitude 30%, 1 cycle) and then centrifuged at 12500 rpm for 15 minutes at 4°C. The protein concentration was determined by BCA assay kit (Thermo Fisher Scientific, Cat#23225).
The western blotting was performed using Simple Western JESS (protein simple). A cell lysis sample (protein amount; about 2 µg) was loaded on a plate of Simple Western JESS, and the expression level of […] was detected using a 12-230 kDa Wes Separation Module (Protein simple, Cat#SM-WO04), an Anti-Rabbit Detection Module for Wes (Protein simple, Cat#DM-001), and a Total Protein Detection Module for Wes (Protein simple, Cat#DM-TP01). As the primary antibody, a material obtained by diluting FAK Rabbit mAb (Cell Signaling Technology, Cat#3285) at 1:100 was used, and as the secondary antibody, a material obtained by diluting HRP-labeled anti-rabbit IgG antibody (Cell Signaling Technology, Cat#7074S) at 1:250 was used. The expression level of the target protein was standardized using the total protein amount loaded as a reference. The standardized expression level data of the control (DMSO) was taken as 100%, and the degradation rate (%) was calculated from the average standardized expression level data of the test compounds (compounds of Examples 109 to 128). All analysis steps, such as data detection and analysis, are fully automated.

T1 sequence (Q9UM73 1058-1620): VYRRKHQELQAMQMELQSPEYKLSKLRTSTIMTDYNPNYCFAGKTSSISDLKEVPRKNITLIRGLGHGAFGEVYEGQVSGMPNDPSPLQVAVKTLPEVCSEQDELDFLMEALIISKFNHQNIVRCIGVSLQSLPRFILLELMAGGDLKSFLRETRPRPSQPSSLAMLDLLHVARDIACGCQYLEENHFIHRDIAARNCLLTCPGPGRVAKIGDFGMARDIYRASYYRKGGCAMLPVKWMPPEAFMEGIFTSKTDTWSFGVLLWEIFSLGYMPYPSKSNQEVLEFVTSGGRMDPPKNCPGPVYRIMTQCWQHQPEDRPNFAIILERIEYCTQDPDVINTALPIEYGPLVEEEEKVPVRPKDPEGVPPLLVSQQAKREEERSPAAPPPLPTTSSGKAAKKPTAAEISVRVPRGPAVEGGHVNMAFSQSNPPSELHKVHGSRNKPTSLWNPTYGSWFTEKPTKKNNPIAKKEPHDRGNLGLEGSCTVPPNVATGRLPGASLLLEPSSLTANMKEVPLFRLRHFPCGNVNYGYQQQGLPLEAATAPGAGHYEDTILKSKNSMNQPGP

COC[C@H]1CN[C@H](C)CN1CC(=O)N1CC(C)(C)c2nc(CN(C)CCOCCOCCNC(=O)CN3CCC(c4cc(OC(C)C)c(Nc5ncc(Cl)c(Nc6ccccc6S(=O)(=O)C(C)C)n5)cc4C)CC3)c(Cc3ccc(F)cc3)cc21 [Example 92, 2-(4-(4-((5-Chloro-4-((2-(isopropylsulfonyl)phenyl)amino)pyrimidin-2-yl)amino)-5-isopropoxy-2-methylphenyl)piperidin-1-yl)-N-(2-(2-(2-(((6-(4-fluorobenzyl)-1-(2-((2R,5R)-2-(methoxymethyl)-5-methylpiperazin-1-yl)acetyl)-3,3-dimethyl-2,3-dihydro-1H-pyrrolo[3,2-b]pyridin-5-yl)methyl) (methyl)amino)ethoxy)ethoxy)ethyl) acetamide]
inhibition at 0.01 µM (human ALK kinase): ≥ 75%

COC[C@H]1CN[C@H](C)CN1CC(=O)N1CC(C)(C)c2ncc(Cc3cccc(OCCOCCOCCOCCOCCOCCNC(=O)CN4CCC(c5cc(OC(C)C)c(Nc6ncc(Cl)c(Nc7ccccc7S(=O)(=O)C(C)C)n6)cc5C)CC4)c3)cc21 [Example 107, 2-(4-(4-((5-Chloro-4-((2-(isopropylsulfonyl)phenyl)amino)pyrimidin-2-yl)amino)-5-isopropoxy-2-methylphenyl)piperidin-1-yl)-N-(17-(3-((1-(2-((2R,5R)-2-(methoxymethyl)-5-methylpiperazin-1-yl)acetyl)-3,3-dimethyl-2,3-dihydro-1H-pyrrolo[3,2-b]pyridin-6-yl)methyl)phenoxy)-3,6,9,12,15-pentaoxaheptadecyl)acetamide]
inhibition at 0.01 µM (human ALK kinase): ≥ 75%

COC[C@H]1CN[C@H](C)CN1CC(=O)N1CC(C)(C)c2ncc(Cc3cccc(OCCN4CCN(CC(=O)Nc5ccc(Nc6ncc(C(F)(F)F)c(NCc7cccc(S(C)(=O)=O)c7)n6)cc5)CC4)c3)cc21 [Example 124, 2-(4-(2-(3-((1-(2-((2R,5R)-2-(Methoxymethyl)-5-methylpiperazin-1-yl)acetyl)-3,3-dimethyl-2,3-dihydro-1H-pyrrolo[3,2-b]pyridin-6-yl)methyl)phenoxy)ethyl)piperazin-1-yl)-N-(4-((4-((3-(methylsulfonyl)benzyl)amino)-5-(trifluoromethyl)pyrimidin-2-yl)amino)phenyl)acetamide]
FAK protein degradation rate (FAK protein): ≥ 75%

COC[C@H]1CN[C@H](C)CN1CC(=O)N1CC(C)(C)c2ncc(Cc3ccccc3OCCOCCOCCOCCOCCNC(=O)CN3CCC(c4cc(OC(C)C)c(Nc5ncc(Cl)c(Nc6ccccc6S(=O)(=O)C(C)C)n5)cc4C)CC3)cc21 [Example 100, 2-(4-(4-((5-Chloro-4-((2-(isopropylsulfonyl)phenyl)amino)pyrimidin-2-yl)amino)-5-isopropoxy-2-methylphenyl)piperidin-1-yl)-N-(14-(2-((1-(2-((2R,5R)-2-(methoxymethyl)-5-methylpiperazin-1-yl)acetyl)-3,3-dimethyl-2,3-dihydro-1H-pyrrolo[3,2-b]pyridin-6-yl)methyl)phenoxy)-3,6,9,12-tetraoxatetradecyl)acetamide]
inhibition at 0.01 µM (human ALK kinase): ≥ 75%

COC[C@H]1CN[C@H](C)CN1CC(=O)N1CC(C)(C)c2ncc(Cc3ccccc3OCCN3CCN(CC(=O)Nc4ccc(Nc5ncc(C(F)(F)F)c(NCc6cccc(S(C)(=O)=O)c6)n5)cc4)CC3)cc21 [Example 119, 2-(4-(2-(2-((1-(2-((2R,5R)-2-(Methoxymethyl)-5-methylpiperazin-1-yl)acetyl)-3,3-dimethyl-2,3-dihydro-1H-pyrrolo[3,2-b]pyridin-6-yl)methyl)phenoxy)ethyl)piperazin-1-yl)-N-(4-((4-((3-(methylsulfonyl)benzyl)amino)-5-(trifluoromethyl)pyrimidin-2-yl)amino)phenyl)acetamide]
FAK protein degradation rate (FAK protein): ≥ 75%

COC[C@H]1CN[C@H](C)CN1CC(=O)N1CC(C)(C)c2nc(CN(C)CCOCCOCCOCCOCCOCCNC(=O)CN3CCC(c4cc(OC(C)C)c(Nc5ncc(Cl)c(Nc6ccccc6S(=O)(=O)C(C)C)n5)cc4C)CC3)c(Cc3ccc(F)cc3)cc21 [Example 95, 2-(4-(4-((5-Chloro-4-((2-(isopropylsulfonyl)phenyl)amino)pyrimidin-2-yl)amino)-5-isopropoxy-2-methylphenyl)piperidin-1-yl)-N-(1-(6-(4-fluorobenzyl)-1-(2-((2R,5R)-2-(methoxymethyl)-5-methylpiperazin-1-yl)acetyl)-3,3-dimethyl-2,3-dihydro-1H-pyrrolo[3,2-b]pyridin-5-yl)-2-methyl-5,8,11,14,17-pentaoxa-2-azanonadecan-19-yl)acetamide]
inhibition at 0.01 µM (human ALK kinase): ≥ 75%

Cc1cc(Nc2ncc(Cl)c(Nc3ccccc3S(=O)(=O)C(C)C)n2)c(OC(C)C)cc1C1CCN(CC(=O)NCCOCCOCCOCCOCCOCCN(C)C[C@H]2CN[C@H](C)CN2CC(=O)N2CC(C)(C)c3ncc(Cc4ccc(F)cc4)cc32)CC1 [Example 89, 2-(4-(4-((5-Chloro-4-((2-(isopropylsulfonyl)phenyl)amino)pyrimidin-2-yl)amino)-5-isopropoxy-2-methylphenyl)piperidin-1-yl)-N-(1-((2R,5R)-1-(2-(6-(4-fluorobenzyl)-3,3-dimethyl-2,3-dihydro-1H-pyrrolo[3,2-b]pyridin-1-yl)-2-oxoethyl)-5-methylpiperazin-2-yl)-2-methyl-5,8,11,14,17-pentaoxa-2-azanonadecan-19-yl)acetamide]
inhibition at 0.01 µM (human ALK kinase): 50 to 75%

C[C@@H]1CN(CC(=O)N2CC(C)(C)c3ncc(Cc4ccc(F)cc4)cc32)[C@@H](CN(C)CCOCCOCCOCCOCC(=O)Nc2ccc(Nc3ncc(C(F)(F)F)c(NCc4cccc(S(C)(=O)=O)c4)n3)cc2)CN1 [Example 112, 1-((2R,5R)-1-(2-(6-(4-Fluorobenzyl)-3,3-dimethyl-2,3-dihydro-1H-pyrrolo[3,2-b]pyridin-1-yl)-2-oxoethyl)-5-methylpiperazin-2-yl)-2-methyl-N-(4-((4-((3-(methylsulfonyl)benzyl)amino)-5-(trifluoromethyl)pyrimidin-2-yl)amino)phenyl)-5,8,11,14-tetraoxa-2-azahexadecan-16-amide]
FAK protein degradation rate (FAK protein): ≥ 75%

Cc1cc(Nc2ncc(Cl)c(Nc3ccccc3S(=O)(=O)C(C)C)n2)c(OC(C)C)cc1C1CCN(CC(=O)NCCOCCN(C)C[C@H]2CN[C@H](C)CN2CC(=O)N2CC(C)(C)c3ncc(Cc4ccc(F)cc4)cc32)CC1 [Example 85, 2-(4-(4-((5-Chloro-4-((2-(isopropylsulfonyl)phenyl)amino)pyrimidin-2-yl)amino)-5-isopropoxy-2-methylphenyl)piperidin-1-yl)-N-(2-(2-((((2R,5R)-1-(2-(6-(4-fluorobenzyl)-3,3-dimethyl-2,3-dihydro-1H-pyrrolo[3,2-b]pyridin-1-yl)-2-oxoethyl)-5-methylpiperazin-2-yl)methyl) (methyl)amino)ethoxy)ethyl)acetamide]
inhibition at 0.01 µM (human ALK kinase): 50 to 75%

2-(4-((6-(4-Fluorobenzyl)-1-(2-((2R,5R)-2-(methoxymethyl)-5-methylpiperazin-1-yl)acetyl)-3,3-dimethyl-2,3-dihydro-1H-pyrrolo[3,2-b]pyridin-5-yl)methyl)piperazin-1-yl)-N-(4-((4-((3-(methylsulfonyl)benzyl)amino)-5-(trifluoromethyl)pyrimidin-2-yl)amino)phenyl)acetamide [Example 114]
FAK protein degradation rate (FAK protein): ≥ 75%

C[C@@H]1CN(CC(=O)N2CC(C)(C)c3ncc(Cc4ccc(F)cc4)cc32)[C@@H](CN(C)CCOCCOCC(=O)Nc2ccc(Nc3ncc(C(F)(F)F)c(NCc4cccc(S(C)(=O)=O)c4)n3)cc2)CN1 [Example 110, 2-(2-(2-((((2R,5R)-1-(2-(6-(4-fluorobenzyl)-3,3-dimethyl-2,3-dihydro-1H-pyrrolo[3,2-b]pyridin-1-yl)-2-oxoethyl)-5-methylpiperazin-2-yl)methyl) (methyl)amino)ethoxy)ethoxy)-N-(4-((4-((3-(methylsulfonyl)benzyl)amino)-5-(trifluoromethyl)pyrimidin-2-yl)amino)phenyl)acetamide]
FAK protein degradation rate (FAK protein): ≥ 75%
